Assay results as given in patent publication US20170121344A1 (Siga Technologies, Inc., priority 2009, published 2017).
Read-outs that look alike come from different tables or passages of the source.

Test system: Dengue-2 (Strain New Guinea C)
Assay: Viral yield assay against Dengue-2 in Vero cells
Type: cell-based, Dengue virus
Conditions: Dengue virus
Procedure, shortened: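 Progeny virus from compound-treated Vero monolayers infected at an MOI of 0.1 is collected after 48 h at 37° C and titered on Vero cells. DMSO serves as control.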

[1] = DENV2, viral yield assay, Vero cells, MOI 0.1, 48 hours post infection, read-out: Activity (EC50 in μM) DENV-2
[2] = Vero cells, MOI 0.1, harvested 48 hours post infection, read-out: Activity (EC50 class) against Dengue-2 Virus in Vero cells
[3] = Vero, 48 h, read-out: Activity (EC50 class) against Dengue-2 Virus in Vero cells

| SMILES | EC50 [1] [µM] | EC50 [2] [µM] | also measured |
| --- | --- | --- | --- |
| Cc1cc(C)c2c(C)c(C(=O)N3c4ccccc4CC3C)sc2n1 (centres unmarked) [Compound 398, (2-methylindolin-1-yl)-(3,4,6-trimethyl-thieno[2,3-b]pyridin-2-yl)methanone] | 5 to 25 | – | – |
| Cc1cc(C)c(NC(=O)c2sc3nc4c(cc3c2N)C(=O)CCC4)c(C)c1 [Compound 94, 3-Amino-5-oxo-5,6,7,8-tetrahydro-thieno[2,3-b]quinoline-2-carboxylic acid (2,4,6-trimethyl-phenyl)-amide] | – | 5 to 25 | – |
| Nc1c(C(=O)Nc2ccc3ccccc3c2)sc2nc3c(cc12)CCC3 [Compound 91, 3-Amino-6,7-dihydro-5H-cyclopenta[b]thieno[3,2-e]pyridine-2-carboxylic acid naphthalen-2-ylamide] | – | – | EC50 [3]: 5 to 25 µM |
| Cc1cc(C)c2c(N)c(C(=O)Nc3cc(C(F)(F)F)ccc3Cl)sc2n1 [Compound 186, 3-Amino-4,6-dimethyl-thieno[2,3-b]pyridine-2-carboxylic acid (2-chloro-5-trifluoromethyl-phenyl)-amide] | – | > 25 | – |
| Nc1c(C(=O)Nc2ccc3c(c2)OCO3)sc2nc(-c3ccc(F)cc3)ccc12 [Compound 608, 3-amino-N-(1,3-benzodioxol-5-yl)-6-(4-fluorophenyl)thieno[2,3-b]pyridine-2-carboxamide] | – | – | EC50 (DENV2, Vero, 48 h, read-out: Activity (EC50 in μM) DENV-2): < 5 µM |
| CC1(C)CC(=O)c2cc3c(N)c(C(=O)Nc4ccc([N+](=O)[O-])cc4)sc3nc2C1 [Compound 214, 3-Amino-7,7-dimethyl-5-oxo-5,6,7,8-tetrahydro-thieno[2,3-b]quinoline-2-carboxylic acid (4-nitro-phenyl)-amide] | – | > 25 | – |
| CCCCN(CCCC)C(=O)c1sc2nc(N3CCOCC3)c3c(c2c1N)CC(C)(C)OC3 [Compound 246, 1-Amino-8,8-dimethyl-5-morpholin-4-yl-8,9-dihydro-6H-7-oxa-3-thia-4-aza-cyclopenta[a]naphthalene-2-carboxylic acid dibutylamide] | – | > 25 | – |
| CN1CCc2nc3sc(C(=O)Nc4ccccc4F)c(N)c3cc2C1 [Compound 38, 3-Amino-6-methyl-5,6,7,8-tetrahydro-thieno[2,3-b][1,6]naphthyridine-2-carboxylic acid (2-fluoro-phenyl)-amide] | – | < 5 | – |
| O=C(Nc1cccc(Cl)c1)c1sc2ncccc2c1OCc1ccc(Cl)c(Cl)c1 [Compound 380, N-(3-chlorophenyl)-3-[(3,4-dichlorophenyl)methoxy]thieno[2,3-b] pyridine-2-carboxamide] | < 5 | – | – |
| COCc1cc(C)nc2sc(C(=O)Nc3ccc(N4CCOCC4)cc3)c(N)c12 [Compound 243, 3-Amino-4-methoxymethyl-6-methyl-thieno[2,3-b]pyridine-2-carboxylic acid (4-morpholin-4-yl-phenyl)-amide] | – | > 25 | – |
| CCN(C(=O)c1sc2nc(C)cc(C(F)(F)F)c2c1C)c1ccccc1 [Compound 406] | < 5 | – | – |
| Cc1cc(C)c2c(N)c(C(=O)Nc3ccc4ccccc4c3)sc2n1 [Compound 83, 3-Amino-4,6-dimethyl-thieno[2,3-b]pyridine-2-carboxylic acid naphthalen-2-ylamide] | – | 5 to 25 | – |
| Cc1ccc(F)cc1NC(=O)c1sc2nc(-c3ccc(F)cc3)ccc2c1N [Compound 623, 3-amino-N-(5-fluoro-2-methyl-phenyl)-6-(4-fluorophneyl)thieno[2,3-b]pyridine-2-carboxamide] | < 5 | – | – |
| Cc1c(Cl)cccc1NC(=O)c1sc2nc(-c3ccc4c(c3)OCO4)ccc2c1N [Compound 586, 3-amino-6-(1,3-benzodioxol-5-yl)-N-(3-chloro-2-methyl-phenyl)thieno[2,3-b] pyridine-2-carboxamide] | < 5 | – | – |
| COCc1cc(C)nc2sc(C(=O)Nc3cccc(Cl)c3)c(N)c12 [Compound 97, 3-Amino-4-methoxymethyl-6-methyl-thieno[2,3-b]pyridine-2-carboxylic acid (3-chloro-phenyl)-amide] | – | 5 to 25 | – |
| CN1CCc2nc3sc(C(=O)Nc4ccc(OC(F)(F)F)cc4)c(N)c3cc2C1 [Compound 30, 3-Amino-6-methyl-5,6,7,8-tetrahydro-thieno[2,3-b][1,6]naphthyridine-2-carboxylic acid (4-trifluoromethoxy-phenyl)-amide] | – | < 5 | – |
| COc1ccc(Cl)cc1NC(=O)c1sc2nc3c(cc2c1N)CN(Cc1ccccc1)CC3 [Compound 31, 3-Amino-6-benzyl-5,6,7,8-tetrahydro-thieno[2,3-b][1,6]naphthyridine-2-carboxylic acid (5-chloro-2-methoxy-phenyl)-amide] | – | < 5 | – |
| Nc1c(C(=O)Nc2ccc(Br)cc2)sc2nc(-c3cccnc3)ccc12 [Compound 435, 3-amino-N-(4-bromophenyl)-6-(3-pyridyl)thieno[2,3-b]pyridine-2-carboxamide] | < 5 | – | – |
| COc1cccc(-c2ccc3c(N)c(C(=O)Nc4ccc(Br)cc4F)sc3n2)c1 [Compound 556, 3-amino-N-(4-bromo-2-fluoro-phenyl)-6-(3-methoxyphenyl)thieno[2,3-b]pyridine-2-carboxamide] | < 5 | – | – |
| Cc1cc(NC(=O)c2sc3nc(C)c(C)c(C)c3c2N)no1 [Compound 255, 3-Amino-4,5,6-trimethyl-thieno[2,3-b]pyridine-2-carboxylic acid (5-methyl-isoxazol-3-yl)-amide] | – | > 25 | – |
| COc1ccc(-c2cc(-c3ccccc3)nc3sc(C(N)=O)c(N)c23)cc1 [Compound 125, 3-Amino-4-(4-methoxy-phenyl)-6-phenyl-thieno[2,3-b]pyridine-2-carboxylic acid amide] | – | > 25 | – |
| COc1cccc(-c2ccc3c(N)c(C(=O)Nc4ccc(Br)cc4C)sc3n2)c1 [Compound 549, 3-amino-N-(4-bromo-2-methyl-phenyl)-6-(3-methoxyphenyl)thieno[2,3-b] pyridine-2-carboxamide] | < 5 | – | – |
| CN1CCc2nc3sc(C(=O)Nc4c(Cl)cccc4Cl)c(N)c3cc2C1 [Compound 109, 3-Amino-6-methyl-5,6,7,8-tetrahydro-thieno[2,3-b][1,6]naphthyridine-2-carboxylic acid (2,6-dichloro-phenyl)-amide] | – | 5 to 25 | – |
| CC(=O)c1cnc2sc(C(=O)NCc3ccc(CN(C)C)cc3)c(C)c2c1 [Compound 400] | < 5 | – | – |
| COCc1cc(C)nc2sc(C(=O)Nc3ccc(Br)c(Cl)c3)c(N)c12 [Compound 197, 3-Amino-4-methoxymethyl-6-methyl-thieno[2,3-b]pyridine-2-carboxylic acid (4-bromo-3-chloro-phenyl)-amide] | – | – | EC50 [3]: > 25 µM |
| Cc1cc(C)c2c(C)c(C(=O)NCC(C)C)sc2n1 [Compound 395, N-isobutyl-3,4,6-trimethyl-thieno[2,3-b] pyridine-2-carboxamide] | 5 to 25 | – | – |
| Cc1cc(C)c2c(C)c(C(=O)NCCC(=O)N3CCCC3)sc2n1 [Compound 405, 3,4,6-trimethyl-N-(3-oxo-3-pyrrolidin-1-yl-propyl)thieno[2,3-b]pyridine-2-carboxamide] | < 5 | – | – |
| CN1CCc2nc3sc(C(=O)Nc4cccc(C#N)c4)c(N)c3cc2C1 [Compound 112, 3-Amino-6-methyl-5,6,7,8-tetrahydro-thieno[2,3-b][1,6]naphthyridine-2-carboxylic acid (3-cyano-phenyl)-amide] | – | 5 to 25 | – |
| O=C(Nc1nccs1)c1sc2nc(N3CCOCC3)cc(-c3ccccc3)c2c1O [Compound 384, 3-hydroxy-6-morpholino-4-phenyl-N-thiazol-2-yl-thieno[2,3-b]pyridine-2-carboxamide] | 5 to 25 | – | – |
